Data on 17 compounds can be found in ChEMBL document CHEMBL4229532, “A series of camptothecin prodrugs exhibit HDAC inhibition activity” (Bioorg Med Chem, 2018).

In general, IC50 refers to the concentration that inhibits the measured activity by half. For orientation: half-life means how long it takes for the measured level to halve. Read a low half-life as rapid decline.

For one data set, the system named is A549. Briefly: Antiproliferative activity against human A549 cells after 72 hrs by SRB assay. The format is functional, cell-based. The settings on record: A549, 72 h. In general terms: In SRB staining, fixed cells bind dye roughly in proportion to their protein.
For the next data set, the system named is HCT-116. Description: Antiproliferative activity against human HCT116 cells after 72 hrs by SRB assay. The format is functional, cell-based. The settings on record: HCT-116, 72 h.
Data set [1] addresses T1, Protein deacetylase HDAC6 (Homo sapiens, UniProt Q9UBN7).
T1 sequence (Q9UBN7 whole entry): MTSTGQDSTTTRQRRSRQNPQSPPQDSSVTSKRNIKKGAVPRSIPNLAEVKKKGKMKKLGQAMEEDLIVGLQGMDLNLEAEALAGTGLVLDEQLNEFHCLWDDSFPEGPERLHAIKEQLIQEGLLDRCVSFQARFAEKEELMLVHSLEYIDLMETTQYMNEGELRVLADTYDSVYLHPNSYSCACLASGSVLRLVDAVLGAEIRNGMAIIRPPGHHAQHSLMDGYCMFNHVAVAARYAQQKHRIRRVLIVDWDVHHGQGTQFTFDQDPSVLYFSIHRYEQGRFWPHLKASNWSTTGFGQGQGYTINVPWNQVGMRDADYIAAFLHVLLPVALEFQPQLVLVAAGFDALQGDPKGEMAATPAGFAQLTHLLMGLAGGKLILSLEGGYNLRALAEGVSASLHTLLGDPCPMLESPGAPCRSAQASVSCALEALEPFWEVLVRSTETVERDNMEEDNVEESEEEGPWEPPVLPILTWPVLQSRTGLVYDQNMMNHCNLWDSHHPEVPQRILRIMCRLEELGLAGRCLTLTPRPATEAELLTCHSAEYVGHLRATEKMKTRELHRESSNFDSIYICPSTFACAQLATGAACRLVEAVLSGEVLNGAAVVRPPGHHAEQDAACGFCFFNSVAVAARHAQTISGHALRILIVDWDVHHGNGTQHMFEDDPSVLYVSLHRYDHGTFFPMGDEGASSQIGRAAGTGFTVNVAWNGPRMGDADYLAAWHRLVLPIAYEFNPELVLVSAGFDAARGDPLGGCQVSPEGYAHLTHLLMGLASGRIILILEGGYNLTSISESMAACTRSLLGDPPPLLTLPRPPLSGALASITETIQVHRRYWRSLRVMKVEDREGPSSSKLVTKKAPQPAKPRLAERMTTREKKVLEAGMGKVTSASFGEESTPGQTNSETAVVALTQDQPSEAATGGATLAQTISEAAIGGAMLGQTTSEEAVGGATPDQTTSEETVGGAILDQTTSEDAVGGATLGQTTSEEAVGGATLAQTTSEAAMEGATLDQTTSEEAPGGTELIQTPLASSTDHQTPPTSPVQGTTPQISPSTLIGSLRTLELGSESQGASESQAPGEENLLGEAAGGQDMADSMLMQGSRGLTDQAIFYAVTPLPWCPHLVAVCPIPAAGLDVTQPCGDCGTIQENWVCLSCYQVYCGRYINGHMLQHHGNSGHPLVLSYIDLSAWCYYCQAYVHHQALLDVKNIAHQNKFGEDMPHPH
Description: Inhibition of recombinant human HDAC6 expressed in baculovirus infected High5 insect cells using Boc-Lys (epsilon-acetyl)-AMC as substrate after 3 hrs by fluorescence assay.

The target in another data set is Histone deacetylase 1 (Homo sapiens, UniProt Q13547). Description: Inhibition of recombinant human HDAC1 expressed in baculovirus infected High5 insect cells using Ac-Lys-Tyr-Lys(epsilon-acetyl)-AMC as substrate after 24 hrs by fluorescence assay.
The target of another data set is Histone deacetylase 3 (Homo sapiens, UniProt O15379). Description: Inhibition of recombinant human HDAC3 expressed in baculovirus infected High5 insect cells using Ac-Lys-Tyr-Lys(epsilon-acetyl)-AMC as substrate after 24 hrs by fluorescence assay.
The target of data set [2] is T2, Protein deacetylase HDAC6 (Homo sapiens) (UniProt Q9UBN7).
T2 sequence (whole entry): T1 sequence (Q9UBN7 whole entry)
Briefly: Inhibition of HDAC6 in human HCT116 cells assessed as increase in acetylated tubulin levels at 1 to 10 uM after 24 hrs by Western blot analysis. In kind it is cell-based. A general note: A western blot detects proteins with antibodies after separation by electrophoresis.

Data set [3] has as its target T2, Protein deacetylase HDAC6 (Homo sapiens). Briefly: Inhibition of HDAC6 in human A549 cells assessed as increase in acetylated tubulin levels at 1 to 10 uM after 24 hrs by Western blot analysis. In kind it is cell-based.
For data set [4] the target is unchanged. Description: Inhibition of HDAC6 in human HCT116 cells assessed as increase in acetylated tubulin levels at 0.03 to 3 uM after 24 hrs by Western blot analysis. In kind it is cell-based.
The target is the same in data set [5]. Briefly: Inhibition of HDAC6 in human A549 cells assessed as increase in acetylated tubulin levels at 0.03 to 3 uM after 24 hrs by Western blot analysis. In kind it is cell-based.
The nature of data set [6]: Stability of the compound in human plasma at 50 uM by HPLC analysis. In kind it is ADME, cell-free.
Data set [7] can be described thus: Stability of the compound in PBS at pH 6 at 50 uM by HPLC analysis. In kind it is physicochemical. The settings on record: buffer, pH 6, 50 µM.
Data set [8] is described as follows: Stability of the compound in PBS at pH 7.4 at 50 uM by HPLC analysis. In kind it is physicochemical. The settings on record: buffer, pH 7.4, 50 µM.
The nature of data set [9]: Stability of the compound in mouse plasma at 50 uM by HPLC analysis. The format is ADME, cell-free.
Data set [10] deals with T2, Protein deacetylase HDAC6 (Homo sapiens). Description: Inhibition of HDAC6 in human HCT116 cells assessed as increase in acetylated tubulin levels at 0.3 to 30 uM after 24 hrs by Western blot analysis. The format is cell-based.
The target is the same in data set [11]. Description: Inhibition of HDAC6 in human A549 cells assessed as increase in acetylated tubulin levels at 0.3 to 30 uM after 24 hrs by Western blot analysis. In kind it is cell-based.
Data set [12] can be described thus: Half life in human plasma at 50 uM by HPLC analysis. The format is ADME, cell-free.
Data set [13] in a line: Half life in PBS at pH 7.4 at 50 uM by HPLC analysis. The format is physicochemical.
A short description of data set [14]: Half life in mouse plasma at 50 uM by HPLC analysis. In kind it is ADME, cell-free.

Calls of active or inactive are those of the source. The calls are words filed in the database; no cut-off is given here.

Histone deacetylase 3, sequence (O15379 whole entry): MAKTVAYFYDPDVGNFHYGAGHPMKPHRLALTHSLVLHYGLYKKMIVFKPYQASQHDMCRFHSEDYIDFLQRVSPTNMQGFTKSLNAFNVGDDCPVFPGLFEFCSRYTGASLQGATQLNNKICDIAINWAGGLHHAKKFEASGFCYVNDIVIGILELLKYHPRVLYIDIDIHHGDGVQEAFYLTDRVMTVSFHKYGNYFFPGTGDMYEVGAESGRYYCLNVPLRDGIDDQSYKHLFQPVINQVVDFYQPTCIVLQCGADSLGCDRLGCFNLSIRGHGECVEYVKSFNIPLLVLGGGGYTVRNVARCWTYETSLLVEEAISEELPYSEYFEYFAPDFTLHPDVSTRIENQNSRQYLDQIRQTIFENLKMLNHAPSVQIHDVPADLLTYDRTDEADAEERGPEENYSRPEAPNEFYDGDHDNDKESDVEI
Histone deacetylase 1, sequence (Q13547 whole entry): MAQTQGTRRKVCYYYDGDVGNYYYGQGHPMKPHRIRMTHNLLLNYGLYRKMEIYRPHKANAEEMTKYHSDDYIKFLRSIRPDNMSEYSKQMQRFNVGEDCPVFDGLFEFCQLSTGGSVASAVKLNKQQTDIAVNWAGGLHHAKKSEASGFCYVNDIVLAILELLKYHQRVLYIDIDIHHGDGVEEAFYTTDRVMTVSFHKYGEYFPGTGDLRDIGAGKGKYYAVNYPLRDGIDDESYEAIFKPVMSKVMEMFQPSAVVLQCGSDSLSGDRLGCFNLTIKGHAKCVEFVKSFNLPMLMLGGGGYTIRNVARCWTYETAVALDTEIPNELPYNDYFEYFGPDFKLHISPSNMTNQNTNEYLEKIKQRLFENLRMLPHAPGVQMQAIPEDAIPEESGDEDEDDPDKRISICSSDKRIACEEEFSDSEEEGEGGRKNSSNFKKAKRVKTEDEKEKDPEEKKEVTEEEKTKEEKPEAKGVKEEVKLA

For the compound `CCc1c2c(nc3ccc(OC(=O)N4CCC(N5CCCCC5)CC4)cc13)-c1cc3c(c(=O)n1C2)COC(=O)[C@]3(O)CC` [IRINOTECAN], the figures for the IC50 in the data set with A549 and in the data set on HCT-116 were 1.88 µM and 1.63 µM, respectively.

Regarding `CCc1c2c(nc3ccc(O)cc13)-c1cc3c(c(=O)n1C2)COC(=O)[C@@]3(CC)OC(=O)CCCCCCCCCCC(=O)NO`, the IC50 in data set [1] was 1.07 µM; on Histone deacetylase 1 it was 12.6 µM; at Histone deacetylase 3, 11.8 µM.

On to `CCc1c2c(nc3ccc(O)cc13)-c1cc3c(c(=O)n1C2)COC(=O)[C@@]3(CC)OC(=O)CCCCCCC(=O)O`, for which the IC50 in data set [1] was 6.94 µM; on Histone deacetylase 1, 27.1 µM; on Histone deacetylase 3, 37.2 µM; in the data set on A549 it was 0.129 µM; in the data set on HCT-116, 0.029 µM. Besides, the inhibition result in data set [2] and in data set [3] was “Active” throughout.

`CCc1c2c(nc3ccc(OC(=O)N4CCN(C(=O)CCCCCCCCCC(=O)NO)CC4)cc13)-c1cc3c(c(=O)n1C2)COC(=O)[C@]3(O)CC`: the IC50 came to 4.7 µM in [1]; 17.4 µM on Histone deacetylase 1; 24.6 µM on Histone deacetylase 3; 6.73 µM with A549; 3.22 µM with HCT-116. The inhibition result in data set [4] and in data set [5] was “Active” throughout.

As for `CCc1c2c(nc3ccc(O)cc13)-c1cc3c(c(=O)n1C2)COC(=O)[C@@]3(CC)OC(=O)CCCCCCCCC(=O)NO`, the IC50 in [1] was 0.32 µM; at Histone deacetylase 1, 0.71 µM; on Histone deacetylase 3, 0.78 µM.

For `CCc1c2c(nc3ccc(O)cc13)-c1cc3c(c(=O)n1C2)COC(=O)[C@@]3(CC)OC(=O)CCCCCCCCCC(=O)NO`, the IC50 in data set [1] was determined as 0.61 µM; at Histone deacetylase 1, 6.18 µM; on Histone deacetylase 3, 5.33 µM.

For the compound `CCc1c2c(nc3ccc(OC(=O)N4CCN(C(=O)CCCCCCCCC(=O)NO)CC4)cc13)-c1cc3c(c(=O)n1C2)COC(=O)[C@]3(O)CC`, the IC50 turned out to be 7.02 µM in data set [1], 30.1 µM at Histone deacetylase 1 and 25.4 µM at Histone deacetylase 3.

Turning to `CCc1c2c(nc3ccc(O)cc13)-c1cc3c(c(=O)n1C2)COC(=O)[C@@]3(CC)OC(=O)CCCCCCC(=O)NO`, the IC50 in [1] was found to be 0.25 µM; at Histone deacetylase 1 it was 0.09 µM; at Histone deacetylase 3, 0.1 µM; with A549 it was 0.612 µM; in the data set on HCT-116, 0.088 µM. In addition, the Stability entry is reported as “Stable” in data set [6], “Stable” in data set [7], “Stable” in data set [8] and “Unstable” in [9]. Moreover, the inhibition entry in [2] and in data set [3] was “inactive” each time.

On to `CCc1c2c(nc3ccc(O)cc13)-c1cc3c(c(=O)n1C2)COC(=O)[C@]3(O)CC` [7-ETHYL-10-HYDROXYCAMPTOTHECIN], for which the values for the IC50 with A549 and in the data set on HCT-116 were 0.00162 to 0.00733 µM and 0.00078 µM, respectively.

On to `CCc1c2c(nc3ccc(O)cc13)-c1cc3c(c(=O)n1C2)COC(=O)[C@@]3(CC)OC(=O)CCCCCC(=O)NO`, for which the IC50 in [1] turned out to be 0.22 µM; at Histone deacetylase 1, 0.11 µM; on Histone deacetylase 3, 0.1 µM; with A549, 0.245 µM; in the data set with HCT-116 it was 0.0462 µM. For the same compound, the inhibition result in data set [2] and in data set [3] was “inactive” in each case.

Consider `CCc1c2c(nc3ccc(OC(=O)N4CCN(C(=O)CCCCCC(=O)NO)CC4)cc13)-c1cc3c(c(=O)n1C2)COC(=O)[C@]3(O)CC`, for which the IC50 was 13.6 µM on Histone deacetylase 1 and 12 µM at Histone deacetylase 3.

In the case of `CCc1c2c(nc3ccc(OC(=O)N4CCN(C(=O)CCCCCCCC(=O)NO)CC4)cc13)-c1cc3c(c(=O)n1C2)COC(=O)[C@]3(O)CC`, the IC50 amounted to 9.04 µM in data set [1], 19.7 µM at Histone deacetylase 1 and 18.8 µM at Histone deacetylase 3.

Regarding `CCc1c2c(nc3ccc(OC(=O)N4CCN(C(=O)CCCCCCC(=O)NO)CC4)cc13)-c1cc3c(c(=O)n1C2)COC(=O)[C@]3(O)CC`, the IC50 in data set [1] turned out to be 12.2 µM; at Histone deacetylase 1, 5.57 µM; at Histone deacetylase 3, 9.32 µM; in the data set with A549, 7.23 µM; in the data set with HCT-116, 6.24 µM. For the same compound, the Stability entry in [6] is reported as “Stable”; in data set [7], “Stable”; in [8] it was “Stable”; in data set [9] it was “Unstable”. The inhibition result in data set [10] and in [11] was “Active” each time.

As for `CCc1c2c(nc3ccc(O)cc13)-c1cc3c(c(=O)n1C2)COC(=O)[C@@]3(CC)OC(=O)CNC(=O)CCCCCCC(=O)NO`, the half-life at 50 µM in [12] is 6 h; in [13], 5 h; in data set [14] it was 1 h. Besides, the IC50 stood at 0.86 µM in data set [1]; 1.96 µM on Histone deacetylase 1; 1.6 µM at Histone deacetylase 3; 0.138 µM in the data set with A549; 0.0305 µM in the data set with HCT-116. The Stability entry in data set [7] is recorded as “Unstable”. For the same compound, the inhibition entry in data set [2] and in data set [3] was “inactive” in each case.

On to `CCc1c2c(nc3ccc(OC(=O)N4CCN(C(=O)CCCCCCCCCCC(=O)NO)CC4)cc13)-c1cc3c(c(=O)n1C2)COC(=O)[C@]3(O)CC`, for which the IC50 turned out to be 3.57 µM in data set [1], 11 µM at Histone deacetylase 1 and 27.3 µM at Histone deacetylase 3.

Regarding `CCc1c2c(nc3ccc(O)cc13)-c1cc3c(c(=O)n1C2)COC(=O)[C@@]3(CC)OC(=O)CCCCCCCC(=O)NO`, the IC50 in data set [1] was 0.21 µM; on Histone deacetylase 1 it was 0.97 µM; on Histone deacetylase 3, 0.99 µM.

Consider `CCc1c2c(nc3ccc(O)cc13)-c1cc3c(c(=O)n1C2)COC(=O)[C@@]3(CC)OC(=O)CNC(=O)CCCCCCC(=O)O`, for which the IC50 in data set [1] is 8.66 µM; at Histone deacetylase 1 it was 27.7 µM; at Histone deacetylase 3, 34.9 µM; with A549 it was 0.111 µM; with HCT-116 it was 0.0232 µM. Besides, the inhibition result in data set [2] and in [3] was “Active” in each case.
